Converted amounts (≈) assume the structure as drawn.
Key:
Assay in all cases: ≥ marks a high value that may be exact or a test limit, other limits are often not marked, values filed in µg/mL are converted to µM
[1] = tested on: Neisseria gonorrhoeae FA19
[2] = tested on: Neisseria gonorrhoeae F62
[3] = tested on: Staphylococcus sp. BCRC 10451
[4] = tested on: Vibrio alginolyticus
[5] = tested on: Vibrio harveyi BCRC 13812
[6] = tested on: Staphylococcus aureus BCRC 10780
[7] = tested on: Streptococcus pneumoniae BCRC 10794
[8] = tested on: Micrococcus luteus BCRC 11034
[9] = tested on: Bacillus anthracis Sterne 34F2
[10] = tested on: Burkholderia thailandensis
[11] = tested on: Bacillus subtilis ATCC 9372
[12] = tested on: Pseudomonas aeruginosa ATCC 27853
[13] = tested on: Colletotrichum sp.
[14] = tested on: Fulvia fulva
[15] = tested on: Alternaria sp.
[16] = tested on: Aspergillus ochraceus
[17] = tested on: Escherichia coli ATCC 35218
[18] = tested on: Aspergillus niger
[19] = tested on: Fusarium oxysporum
[20] = tested on: Staphylococcus aureus ATCC 25325
[21] = tested on: Acinetobacter baumannii NR-9667
[22] = tested on: Staphylococcus aureus NRS 77
[23] = tested on: Staphylococcus aureus USA 200
[24] = tested on: Staphylococcus aureus ATCC BAA-44
[25] = tested on: Staphylococcus epidermidis NRS 101
[26] = tested on: Staphylococcus aureus ATCC 6538
[27] = tested on: Pseudomonas aeruginosa ATCC 25619
[28] = tested on: Staphylococcus aureus NRS 19
[29] = tested on: Pseudomonas aeruginosa ATCC 9721
[30] = tested on: Staphylococcus aureus NRS 1
[31] = tested on: Pseudomonas aeruginosa ATCC 10145
[32] = tested on: Acinetobacter baumannii NR-17777
[33] = tested on: Acinetobacter baumannii ATCC BAA-1605
[34] = tested on: Pseudomonas aeruginosa ATCC BAA-1744
[35] = tested on: Acinetobacter baumannii ATCC 19606
[36] = tested on: Staphylococcus aureus RN4220
[37] = tested on: Staphylococcus aureus USA 300
[38] = tested on: Staphylococcus aureus VRSA2
[39] = tested on: Acinetobacter baumannii NR-17784
[40] = tested on: Staphylococcus aureus VRSA1
[41] = tested on: Pseudomonas aeruginosa ATCC 35032
[42] = tested on: Pseudomonas aeruginosa 1109
[43] = tested on: Acinetobacter baumannii ATCC BAA-747
[44] = tested on: Pseudomonas aeruginosa 1017
[45] = tested on: Pseudomonas aeruginosa 1133
[46] = tested on: Staphylococcus aureus ATCC 43300
[47] = tested on: Staphylococcus aureus USA 100
[48] = tested on: Pseudomonas aeruginosa ATCC 9027
[49] = tested on: Staphylococcus aureus NRS 72
[50] = tested on: Pseudomonas aeruginosa ATCC 15442

`CC(C)[C@H](NC(=O)[C@@H]1CSSC[C@H](N)C(=O)N[C@@H](Cc2ccc(O)cc2)C(=O)N[C@H]2CSSC[C@H](NC(=O)[C@H](Cc3ccccc3)NC(=O)[C@H](CCCNC(=N)N)NC(=O)[C@H](CCCNC(=N)N)NC(=O)[C@H](CCCNC(=N)N)NC2=O)C(=O)N[C@@H](C(C)C)C(=O)N1)C(=O)NCC(=O)N[C@@H](CCCNC(=N)N)C(N)=O` [CYCRRRFCVCVGR] gave an MIC [1] of 6.56 µM (≈ 10.6 µg/mL) and an MIC [2] of 2.7 µM (≈ 4.36 µg/mL).

`CC[C@H](C)[C@H](NC(=O)[C@H](Cc1ccccc1)NC(C)=O)C(=O)N[C@@H](Cc1ccccc1)C(=O)N[C@@H](Cc1cnc[nH]1)C(=O)N[C@H](C(=O)N[C@H](C(=O)N[C@@H](CCCCN)C(=O)NCC(=O)N[C@@H](CC(C)C)C(=O)N[C@@H](Cc1ccccc1)C(=O)N[C@@H](Cc1cnc[nH]1)C(=O)N[C@@H](C)C(N)=O)[C@@H](C)CC)[C@@H](C)CC` [FIFHIIKGLFHA] was tested, and the MIC [3] was 8.66 µM (≈ 12.9 µg/mL), the MIC [4] was 17.3 µM (≈ 25.7 µg/mL) and the MIC [5] was 4.33 µM (≈ 6.43 µg/mL). It also gave an MIC [6] of 4.33 µM (≈ 6.43 µg/mL).

In the case of `CC[C@H](C)[C@H](NC(=O)[C@H](CCCCN)NC(=O)[C@@H]1CCCN1C(=O)[C@@H](NC(=O)[C@H](CC(C)C)NC(=O)[C@H](C)NC(=O)[C@H](Cc1ccccc1)NC(=O)[C@H](Cc1ccccc1)NC(=O)CNC(C)=O)[C@@H](C)CC)C(=O)N[C@H](C(=O)N[C@@H](CO)C(=O)N[C@@H](CO)C(=O)N1CCC[C@H]1C(=O)N[C@@H](CC(C)C)C(=O)N[C@@H](Cc1ccccc1)C(=O)N[C@@H](CCCCN)C(=O)N[C@H](C(=O)N[C@@H](CC(C)C)C(=O)N[C@@H](CC(C)C)C(=O)N[C@@H](CO)C(=O)N[C@@H](C)C(N)=O)[C@@H](C)O)[C@@H](C)CC` [GFFALIPKIISSPLFKTLLSA], the MIC [3] is reported as 5.52 µM (≈ 12.7 µg/mL), the MIC [6] is reported as ≥ 44.2 µM and the MIC [7] is reported as ≥ 44.2 µM. For the same compound, the MIC [8] was ≥ 44.2 µM.

With `CC[C@H](C)[C@H](NC(=O)[C@H](Cc1cnc[nH]1)NC(=O)[C@H](CCCCN)NC(=O)[C@@H](NC(=O)[C@@H](NC(=O)[C@H](CC(=O)O)NC(=O)[C@H](Cc1ccccc1)NC(=O)[C@H](Cc1c[nH]c2ccccc12)NC(=O)CN)C(C)C)C(C)C)C(=O)N[C@@H](C)C(=O)N[C@@H](CO)C(=O)N[C@@H](C)C(=O)N[C@H](C(=O)O)C(C)C` [GWFDVVKHIASAV] the MIC [9] was ≥ 100 µM, the MIC [10] was ≥ 50 µM and the MIC [11] was ≥ 100 µM.

In the case of `CC(C)C[C@H](NC(=O)[C@H](Cc1ccc(O)cc1)NC(=O)[C@H](Cc1cnc[nH]1)NC(=O)[C@@H](NC(=O)[C@H](CC(C)C)NC(=O)[C@H](C)NC(=O)[C@H](C)NC(=O)[C@H](CCCCN)NC(=O)CNC(=O)[C@@H](NC(=O)[C@H](Cc1cnc[nH]1)NC(=O)[C@@H](N)CCCCN)C(C)C)[C@@H](C)O)C(=O)O` [KHVGKAALTHYL], the MIC [12] is reported as 9.1 µM (≈ 12.2 µg/mL), the MIC [13] is reported as 2.33 µM (≈ 3.12 µg/mL) and the MIC [14] is reported as 9.35 µM (≈ 12.5 µg/mL). For the same compound, the MIC [15] was 4.67 µM (≈ 6.25 µg/mL), the MIC [16] was ≥ 37.4 µM and the MIC [17] was 4 µM (≈ 5.35 µg/mL). It also gave an MIC [18] of 4.67 µM (≈ 6.25 µg/mL), an MIC [19] of 2.33 µM (≈ 3.12 µg/mL) and an MIC [20] of 4.6 µM (≈ 6.15 µg/mL).

In the case of `CC[C@H](C)[C@H](NC(=O)[C@H](CCCN=C(N)N)NC(=O)[C@H](CCCN=C(N)N)NC(=O)[C@H](CC(C)C)NC(=O)[C@@H](N)Cc1c[nH]c2ccccc12)C(=O)N[C@@H](CCCCN)C(=O)N[C@@H](C)C(=O)N[C@@H](Cc1c[nH]c2ccccc12)C(=O)N[C@@H](CC(C)C)C(=O)N[C@@H](CCCN=C(N)N)C(=O)N[C@@H](CCCN=C(N)N)C(=O)O` [WLRRIKAWLRR], the MIC [21] is reported as ≥ 32 µM, the MIC [22] is reported as 16 µM (≈ 24.9 µg/mL) and the MIC [12] is reported as 64 µM (≈ 99.5 µg/mL). The MIC [23] was 8 µM (≈ 12.4 µg/mL), the MIC [24] was 16 µM (≈ 24.9 µg/mL) and the MIC [25] was 8 µM (≈ 12.4 µg/mL). The MIC [26] was 16 µM (≈ 24.9 µg/mL), the MIC [27] was ≥ 64 µM and the MIC [28] was 8 µM (≈ 12.4 µg/mL). For the same compound, the MIC [29] was ≥ 64 µM, the MIC [30] was 16 µM (≈ 24.9 µg/mL) and the MIC [31] was ≥ 128 µM. The MIC [32] was 16 µM (≈ 24.9 µg/mL), the MIC [33] was ≥ 32 µM and the MIC [34] was ≥ 128 µM. The MIC [35] was 16 µM (≈ 24.9 µg/mL), the MIC [36] was 8 µM (≈ 12.4 µg/mL) and the MIC [37] was 16 µM (≈ 24.9 µg/mL). For the same compound, the MIC [38] was 16 µM (≈ 24.9 µg/mL), the MIC [39] was ≥ 64 µM and the MIC [40] was ≥ 32 µM. For the same compound, the MIC [41] was ≥ 64 µM, the MIC [42] was ≥ 128 µM and the MIC [43] was ≥ 64 µM. The MIC [44] was ≥ 128 µM, the MIC [45] was ≥ 64 µM and the MIC [46] was 16 µM (≈ 24.9 µg/mL). For the same compound, the MIC [47] was 16 µM (≈ 24.9 µg/mL), the MIC [48] was 64 µM (≈ 99.5 µg/mL) and the MIC [49] was ≥ 32 µM. For the same compound, the MIC [50] was ≥ 128 µM.

Reference: DBAASP
